Laboratory results: PMC6934184, “Selective DNA-PKcs inhibition extends the therapeutic index of localized radiotherapy and chemotherapy” (The Journal of Clinical Investigation, 2019)

Target: T1, MINK1 (Homo sapiens, UniProt Q8N4C8)
T1 construct: purchased Thermo Fisher Scientific (Life Technologies) SelectScreen
Experiment: SelectScreen Z'LYTE
Type: biochemical
Procedure, shortened: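 Percent values come from Thermo SelectScreen profiling of NU5455, combining activity and binding assays. CSF1R was run in Z'LYTE format at Km app ATP, and CAMK1 in Adapta format with ATP listed at 10.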

T1 sequence (Q8N4C8 whole entry): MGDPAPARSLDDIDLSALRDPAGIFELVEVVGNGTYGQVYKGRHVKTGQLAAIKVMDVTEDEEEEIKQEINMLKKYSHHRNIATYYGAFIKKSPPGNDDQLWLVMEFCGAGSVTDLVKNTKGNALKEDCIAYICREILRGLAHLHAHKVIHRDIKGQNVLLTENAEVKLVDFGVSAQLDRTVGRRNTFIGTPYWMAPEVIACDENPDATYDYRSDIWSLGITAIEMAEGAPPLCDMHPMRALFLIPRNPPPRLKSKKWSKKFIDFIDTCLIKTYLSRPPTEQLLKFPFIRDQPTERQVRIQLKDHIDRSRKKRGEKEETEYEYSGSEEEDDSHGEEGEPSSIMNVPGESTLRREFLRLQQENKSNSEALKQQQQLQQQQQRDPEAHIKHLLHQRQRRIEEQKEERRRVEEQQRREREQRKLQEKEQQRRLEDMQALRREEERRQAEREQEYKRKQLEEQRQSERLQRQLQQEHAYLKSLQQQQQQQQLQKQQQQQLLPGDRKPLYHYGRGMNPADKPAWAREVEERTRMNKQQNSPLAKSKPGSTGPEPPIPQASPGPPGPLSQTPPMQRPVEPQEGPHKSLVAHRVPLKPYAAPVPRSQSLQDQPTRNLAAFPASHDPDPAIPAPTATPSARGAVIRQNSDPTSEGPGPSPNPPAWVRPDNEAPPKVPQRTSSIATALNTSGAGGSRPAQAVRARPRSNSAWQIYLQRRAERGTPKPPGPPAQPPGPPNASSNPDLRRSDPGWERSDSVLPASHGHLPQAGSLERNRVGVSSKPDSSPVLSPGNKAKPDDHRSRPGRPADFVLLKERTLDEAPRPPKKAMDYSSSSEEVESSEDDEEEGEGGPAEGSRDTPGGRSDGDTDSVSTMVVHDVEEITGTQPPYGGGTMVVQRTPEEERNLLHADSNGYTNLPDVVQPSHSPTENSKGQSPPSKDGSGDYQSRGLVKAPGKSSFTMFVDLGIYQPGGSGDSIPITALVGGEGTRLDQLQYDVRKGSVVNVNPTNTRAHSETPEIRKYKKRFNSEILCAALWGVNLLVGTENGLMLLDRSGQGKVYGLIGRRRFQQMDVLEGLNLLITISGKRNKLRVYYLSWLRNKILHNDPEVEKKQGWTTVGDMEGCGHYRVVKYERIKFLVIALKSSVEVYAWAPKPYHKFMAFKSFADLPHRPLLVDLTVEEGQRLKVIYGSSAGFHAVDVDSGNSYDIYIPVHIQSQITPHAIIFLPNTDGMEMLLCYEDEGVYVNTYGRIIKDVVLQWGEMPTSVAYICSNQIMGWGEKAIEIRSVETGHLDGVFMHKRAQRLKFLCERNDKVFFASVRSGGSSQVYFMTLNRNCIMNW

## CN(C(=O)CN1CCOCC1)c1ccc2sc3c(-c4cccc5c(=O)cc(N6CC7CCC(C6)O7)oc45)cccc3c2c1 [NU5455]
  inhibition at 1 µM: 4.6%
